Experimental data from US10087170B2, “Compound, photosensitive resin composition including the same, and color filter” (SAMSUNG SDI CO., LTD., priority 2016, dated 2018).

Experiment: Evaluation 1: Solubility in organic solvents
Assay type: physicochemical
Details: 0.5 g compound, stirred at 25° C. and 100 rpm for 1 hour; for Amount of dissolved compound (wt %) Chloroform: solvent chloroform; for Amount of dissolved compound (wt %) Diacetone alcohol: solvent diacetone alcohol
From the text: Solubility Evaluation Reference
X: solubility of less than 1 wt %
∘: solubility of greater than or equal to 1 wt % and less than 5 wt %
⊚: solubility of greater than or equal to 5 wt %

Structure (SMILES) | Amount of dissolved compound (wt %) Chloroform | Amount of dissolved compound (wt %) Diacetone alcohol
CC[N+](CC)=c1ccc2c(-c3ccccc3S(=O)(=O)[O-])c3ccc(N(C)CCCCCCN(C)c4ccc5c(-c6ccccc6S(=O)(=O)[O-])c6ccc(=[N+](CC)CC)cc-6oc5c4)cc3oc-2c1 [Chemical Formula 7] | ◯ (solubility of greater than or equal lo 1 wt % and less than 5 wt %) | ◯ (solubility of greater than or equal lo 1 wt % and less than 5 wt %)
CCN(CCCCCCN(CC)c1ccc2c(-c3ccccc3S(=O)(=O)[O-])c3ccc(=[N+](CC)CC)cc-3oc2c1)c1ccc2c(-c3ccccc3S(=O)(=O)[O-])c3ccc(=[N+](CC)CC)cc-3oc2c1 [Chemical Formula 8] | ◯ (solubility of greater than or equal lo 1 wt % and less than 5 wt %) | ◯ (solubility of greater than or equal lo 1 wt % and less than 5 wt %)
CCN(CCOC(=O)NCCCCCCNC(=O)OCCN(CC)c1ccc2c(-c3ccccc3S(=O)(=O)[O-])c3ccc(=[N+](CC)CC)cc-3oc2c1)c1ccc2c(-c3ccccc3S(=O)(=O)[O-])c3ccc(=[N+](CC)CC)cc-3oc2c1 [Chemical Formula 9] | ◯ (solubility of greater than or equal lo 1 wt % and less than 5 wt %) | ◯ (solubility of greater than or equal lo 1 wt % and less than 5 wt %)
CCN(CCOC(=O)CCCCCCC(=O)OCCN(CC)c1ccc2c(-c3ccccc3S(=O)(=O)[O-])c3ccc(=[N+](CC)CC)cc-3oc2c1)c1ccc2c(-c3ccccc3S(=O)(=O)[O-])c3ccc(=[N+](CC)CC)cc-3oc2c1 [Chemical Formula 10] | ◯ (solubility of greater than or equal lo 1 wt % and less than 5 wt %) | ◯ (solubility of greater than or equal lo 1 wt % and less than 5 wt %)
CCN(CCOC(=O)NCC1CCCC(CNC(=O)OCCN(CC)c2ccc3c(-c4ccccc4S(=O)(=O)[O-])c4ccc(=[N+](CC)CC)cc-4oc3c2)C1)c1ccc2c(-c3ccccc3S(=O)(=O)[O-])c3ccc(=[N+](CC)CC)cc-3oc2c1 (stereo not drawn) [Chemical Formula 11] | ◯ (solubility of greater than or equal lo 1 wt % and less than 5 wt %) | ◯ (solubility of greater than or equal lo 1 wt % and less than 5 wt %)
CC[N+](CC)=c1ccc2c(-c3ccccc3S(=O)(=O)[N-]S(=O)(=O)C(F)(F)F)c3ccc(N(C)CCCCCCN(C)c4ccc5c(-c6ccccc6S(=O)(=O)[N-]S(=O)(=O)C(F)(F)F)c6ccc(=[N+](CC)CC)cc-6oc5c4)cc3oc-2c1 [Chemical Formula 12] | ◯ (solubility of greater than or equal lo 1 wt % and less than 5 wt %) | ◯ (solubility of greater than or equal lo 1 wt % and less than 5 wt %)
C=C(C)C(=O)OCCNC(=O)OCC[N+](CC)=c1ccc2c(-c3ccccc3S(=O)(=O)[O-])c3ccc(N(C)CCCCCCN(C)c4ccc5c(-c6ccccc6S(=O)(=O)[O-])c6ccc(=[N+](CC)CCOC(=O)NCCOC(=O)C(=C)C)cc-6oc5c4)cc3oc-2c1 [Chemical Formula 13] | ⊚ (solubility of greater than or equal to 5 wt %) | ⊚ (solubility of greater than or equal to 5 wt %)
C=C(C)C(=O)OCCNC(=O)OCC[N+](CC)=c1ccc2c(-c3ccccc3S(=O)(=O)[O-])c3ccc(N(CC)CCCCCCN(CC)c4ccc5c(-c6ccccc6S(=O)(=O)[O-])c6ccc(=[N+](CC)CCOC(=O)NCCOC(=O)C(=C)C)cc-6oc5c4)cc3oc-2c1 [Chemical Formula 14] | ⊚ (solubility of greater than or equal to 5 wt %) | ⊚ (solubility of greater than or equal to 5 wt %)
CCN(CCOC(=O)NC1CCC(CC2CCC(NC(=O)OCCN(CC)c3ccc4c(-c5ccccc5S(=O)(=O)[O-])c5ccc(=[N+](CC)CC)cc-5oc4c3)CC2)CC1)c1ccc2c(-c3ccccc3S(=O)(=O)[O-])c3ccc(=[N+](CC)CC)cc-3oc2c1 (stereo not drawn) [Chemical Formula 16] | ◯ (solubility of greater than or equal lo 1 wt % and less than 5 wt %) | ◯ (solubility of greater than or equal lo 1 wt % and less than 5 wt %)
C=CC(=O)OCC[N+](CC)=c1ccc2c(-c3ccccc3S(=O)(=O)[O-])c3ccc(N(CC)CCCCCCN(CC)c4ccc5c(-c6ccccc6S(=O)(=O)[O-])c6ccc(=[N+](CC)CCOC(=O)C=C)cc-6oc5c4)cc3oc-2c1 [Chemical Formula 17] | ⊚ (solubility of greater than or equal to 5 wt %) | ⊚ (solubility of greater than or equal to 5 wt %)
C=C(C)C(=O)OCC[N+](CC)=c1ccc2c(-c3ccccc3S(=O)(=O)[O-])c3ccc(N(CC)CCCCCCN(CC)c4ccc5c(-c6ccccc6S(=O)(=O)[O-])c6ccc(=[N+](CC)CCOC(=O)C(=C)C)cc-6oc5c4)cc3oc-2c1 [Chemical Formula 18] | ⊚ (solubility of greater than or equal to 5 wt %) | ⊚ (solubility of greater than or equal to 5 wt %)
C=CC(=O)OCC[N+](CC)=c1ccc2c(-c3ccccc3S(=O)(=O)[O-])c3ccc(N(CC)CCCCCCN(CC)c4ccc5c(-c6ccccc6S(=O)(=O)[O-])c6ccc(=[N+](CC)CC)cc-6oc5c4)cc3oc-2c1 [Chemical Formula 19] | ⊚ (solubility of greater than or equal to 5 wt %) | ⊚ (solubility of greater than or equal to 5 wt %)
C=C(C)C(=O)OCC[N+](CC)=c1ccc2c(-c3ccccc3S(=O)(=O)[O-])c3ccc(N(CC)CCCCCCN(CC)c4ccc5c(-c6ccccc6S(=O)(=O)[O-])c6ccc(=[N+](CC)CC)cc-6oc5c4)cc3oc-2c1 [Chemical Formula 20] | ⊚ (solubility of greater than or equal to 5 wt %) | ⊚ (solubility of greater than or equal to 5 wt %)
C=C(C)C(=O)OCCNC(=O)OCC[N+](CC)=c1ccc2c(-c3ccccc3S(=O)(=O)[O-])c3ccc(N(CC)CCCCCCN(CC)c4ccc5c(-c6ccccc6S(=O)(=O)[O-])c6ccc(=[N+](CC)CC)cc-6oc5c4)cc3oc-2c1 [Chemical Formula 21] | ⊚ (solubility of greater than or equal to 5 wt %) | ⊚ (solubility of greater than or equal to 5 wt %)
CCN(CC)c1ccc2c(-c3ccccc3S(=O)(=O)[O-])c3ccc(=[N+](CC)CC)cc-3oc2c1 [Chemical Formula X, reference compound] | X (solubility of less than 1 wt %) | X (solubility of less than 1 wt %)
